The values that follow come from PMC4122495, “Small Molecule Deubiquitinase Inhibitors Promote Macrophage Anti-Infective Capacity” (PLoS ONE, 2014).

Values after ≈ are worked out from the molar mass of the structure shown. “Also recorded” adds a separate entry of the source. Read-outs that look alike come from different tables or passages of the source.

In data set [1] the test system is L. monocytogenes. The experiment in a line: L. monocytogenes intracellular growth assay in RAW264.7 macrophages. The class given is cell-based, Listeria monocytogenes 10403S. More on the design: decrease in Listeria intracellular viability: concentration or dose not given beside the values. The following applies: for EC50: Listeria monocytogenes, RAW264.7 pre-treated with varying concentrations, then infected (MOI 1), intracellular CFU at 8 h post-infection, non-linear regression; for decrease in Listeria intracellular viability: RAW264.7 pre-treated at each compound's working condition (Fig. 2B, 5B); for decrease in Listeria intracellular viability / effect on L.m. intracellular growth (in words) / Decrease intracellular listeria viability (%): 8 h post-infection; for decrease in Listeria intracellular viability / Decrease intracellular listeria viability (%): vs DMSO; for effect on L.m. intracellular growth (in words): RAW264.7 pre-treated with compound; for Decrease intracellular listeria viability (%): conditions of Figure 2B and Figure 5B, maximal effective drug concentration used. The protocol: RAW264.7 cells were cultured at an initial density of 4×10^6 cells per 24-well plate and allowed to adhere overnight. Macrophages were treated with 2.5 or 5 µM of DUB inhibitors dissolved in dimethyl sulfoxide (DMSO) for 0.5 or 1 h or with equivalent volume of DMSO (vehicle control) at 37°C. For dose-response curves, macrophages were incubated with 5, 2.5, 1 and 0.5 µM of compounds 1, 3 and 4 or 2.5, 2, 1 and 0.5 µM of compounds 2 and 9 for 0.5 h or 1 h at 37°C. DUB inhibitors were removed from cell culture prior to infection by changing the medium. Macrophages were infected with L. monocytogenes at a multiplicity of infection (MOI) of 1 for 0.5 h at 37°C. The inoculum was removed by washing infected cells three times with Dulbecco’s phosphate-buffered saline (PBS), and the cells were incubated in medium containing 10 µg/ml of gentamicin to kill extracellular bacteria for the duration of the experiment. At 8 h post-infection, cells were lysed in 1 ml 0.1% Triton X-100, serially diluted and plated on Luria-Bertani (LB) agar to enumerate the number of colony forming units (CFU). CFU were counted using the Acolyte SuperCount (Microbiology International, Frederick, MD) plate reader and software. Results were normalized to DMSO-treated cells.
Supplementary file pone.0104096.s001.tif: Figure S1 Dose-response curves for selected compounds. RAW264.7 cells were incubated with DMSO (equivalent volume) or the varying concentrations of WP1130-derivatives for 0.5 h (compounds 1, 2, 4 and 9) or 1 h (compound 3). After incubation, the medium was removed, and cells were infected at 37°C for 0.5 h at an MOI of 1 with L. monocytogenes in the absence of additional drugs. Following the 0.5 h infection, cells were washed and gentamycin (10 µg/ml) was added to kill extracellular bacteria. Intracellular bacteria were enumerated at 8 h post-infection. The data represent percent of Listeria intracellular growth compared to DMSO-treated cells from three independent experiments performed in triplicate. Non-linear regression curves were performed using the GraphPad Prism software. (TIF) Click here for additional data file.

Data set [2] has as its system L. monocytogenes. The experiment in a line: Bacterial growth curve in BHI broth culture. The class given is cell-based, Listeria monocytogenes 10403S. The conditions noted are these: 5 µM in BHI broth; for effect on Listeria growth in broth culture: absence of host cells, up to 8 h. As for the experimental part: For bacterial growth curve in broth culture, an overnight culture of L. monocytogenes was back-diluted 1∶50 into BHI broth in the presence of 5 µM of compounds 1 to 4, 2.5 µM of compound 9 or equivalent volume of DMSO and incubated statically at 30°C for up to 8 h. At indicated time points (0, 2, 4, 6 and 8 h), a 50 µl-aliquot of bacteria was serially diluted and plated on LB agar to determine the number of CFU. To test the bactericidal properties of compound 9, an overnight culture of L. monocytogenes was back-diluted 1∶50 into BHI broth and allowed to grow at 37°C with shaking until an optical density at 600 nm (OD600) of ∼0.6–0.7 was obtained. Bacteria were then exposed to 1, 2.5 or 5 µM of compound 9 or equivalent volume of DMSO for 2 h at 4°C. After incubation, bacteria were serially diluted and plated on LB agar to determine CFU.

A further data set deals with RAW264.7 cells. The experiment in a line: WST-1 cell viability assay, conditions mimicking the bacterial infection protocol. The format is cell-based, murine. The conditions noted are these: then 8 h. The protocol:
For cell viability assays in conditions that mimicked the bacterial infection protocol, RAW264.7 cells were cultured at an initial density of 4×10^6 cells per 96-well plate. Cells were treated with 2.5 or 5 µM DUB inhibitors dissolved in DMSO for 0.5 h or 1 h or with equivalent volume of DMSO. DUB inhibitors were removed after treatment by washing three times with PBS, and cells were incubated in culture media for 6.5 h at 37°C. The WST-1 reagent (Roche, San Francisco, CA), which measures mitochondrial dehydrogenase activity, was diluted 1 in 10 in media and cells were incubated at 37°C for an additional 1.5 h. The optical density at 440 nm (OD440) and 600 nm (OD600) was determined and results were normalized to DMSO-treated cells.

Data set [3] is described as follows: Aqueous kinetic solubility. The following applies: aqueous (not further specified). The class given is physicochemical.
The subject of data set [4] is L. monocytogenes. The arrangement: method as in PMID 21911458. The following applies: absence of host cells; cited from earlier work.
A further data set relates to MNV-1. More on the design: method as in PMID 22792064. The conditions noted are these: pre-treatment of RAW264.7 cells; cited from earlier work.
The next data set concerns USP9x. More on the design: method as in Donato, N. J., manuscript in preparation. The following applies: cell-based assay; ref Donato, N. J., manuscript in preparation; read-out: IC50 against USP9x; cited from earlier work.

The term EC50 denotes the concentration that produces a half-maximal response. The solubility (kinetic) is the concentration staying in solution when a stock, usually in DMSO, is diluted into the medium. One may read the IC50 as the concentration that gives 50% inhibition.

For the compound `CCC[C@H](NC(=O)/C(C#N)=C/c1cccc(F)n1)c1ccccc1` [Compound 4], in the data set on L. monocytogenes [1], the EC50 came to 2880 nM, the “decrease in Listeria intracellular viability” value is reported as 29.2%, the “effect on L.m. intracellular growth (in words)” value (shortened to “effect … (in words)”) is listed as “Decrease L.m. intracellular growth” and the “Decrease intracellular listeria viability (%)” value came out at 29.2%. In addition, the “effect on Listeria growth in broth culture” value (shortened to “effect on Listeria growth”) in the data set with L. monocytogenes [2] is “no effect”.

Regarding `CCCC(NC(=O)/C(C#N)=C/c1cccc(Br)n1)c1ccc(OCOC)cc1` (centres unmarked) [Compound 3], in the data set with L. monocytogenes [1], the “decrease in Listeria intracellular viability” value was 39.9%, the “effect … (in words)” value is listed as “Decrease L.m. intracellular growth” and the “Decrease intracellular listeria viability (%)” value was 39.9%. Moreover, the “cellular toxicity (WST-1 viability)” value with RAW264.7 cells (5 µM, 1 h pre-treatment) is “no significant toxicity”. Moreover, in the data set with L. monocytogenes [2], the “effect on Listeria growth” value is on record as “slight decrease in the in vitro growth”.

As for `CCCC(NC(=O)/C(C#N)=C/c1cccc(F)n1)c1ccc(OCCN2CCOCC2)cc1` (centres unmarked) [Compound 6], the “effect … (in words)” value with L. monocytogenes [1] is “No effect on L.m. intracellular growth”; in the data set with L. monocytogenes [1] (listed as compound 6), “no significant effect on Listeria intracellular growth; also recorded: complete loss of activity”. For the same compound, in the data set on RAW264.7 cells (5 µM, 1 h pre-treatment), the “cellular toxicity (WST-1 viability)” value is recorded as “no significant toxicity”.

Take `CCC[C@H](NC(=O)/C(C#N)=C/c1cccc(Br)n1)c1ccccc1` [WP1130, reference compound]: in the data set with L. monocytogenes [1], the “decrease in Listeria intracellular viability” value amounted to 69.9% and the “effect … (in words)” value is reported as “Decrease L.m. intracellular growth”. In data set [3], this compound registered a solubility (kinetic) of 3.2 µM (≈ 1.23 µg/mL). In the data set with L. monocytogenes [4], the “effect on Listeria growth” value is listed as “no effect”. Moreover, in the data set on MNV-1, the “average decrease in MNV-1 titers compared to DMSO vehicle control” value is 2.0 log. The IC50 in the data set with USP9x is 6600 nM.

For `CCC(NC(=O)/C(C#N)=C/c1cccc(Br)n1)c1ccc(O)cc1` (centres unmarked) [Compound 5], in the data set on L. monocytogenes [1], the “decrease in Listeria intracellular viability” value came to 25.4% and the “effect … (in words)” value is recorded as “Decrease L.m. intracellular growth”. Besides, the “cellular toxicity (WST-1 viability)” value in the data set on RAW264.7 cells (5 µM, 1 h pre-treatment) is “no significant toxicity”.

As to `CCCC(NC(=O)/C(C#N)=C/c1cccnc1F)c1ccc(OCCN2CCOCC2)cc1` (centres unmarked) [Compound 7], the “effect … (in words)” value with L. monocytogenes [1] is listed as “No effect on L.m. intracellular growth”; in the data set with L. monocytogenes [1] (listed as compound 7), “no significant effect on Listeria intracellular growth; also recorded: complete loss of activity”. Also, in the data set on RAW264.7 cells (5 µM, 1 h pre-treatment), the “cellular toxicity (WST-1 viability)” value was “no significant toxicity”.

With `CCC[C@@H](NC(=O)/C(C#N)=C/c1cccc(Br)n1)c1ccccc1` [Compound 2], in the data set on L. monocytogenes [1], the 50% effective concentration (EC50) was found to be 1760 nM, the “decrease in Listeria intracellular viability” value is 44%, the “effect … (in words)” value was “Decrease L.m. intracellular growth” and the “Decrease intracellular listeria viability (%)” value amounted to 44.0%. In addition, the “cellular toxicity (WST-1 viability)” value with RAW264.7 cells (pre-treatment 0.5 or 1 h, led to working concentration of 2.5 µM for 0.5 h) is given as “slight increase in toxicity”. Also, in the data set with L. monocytogenes [2], the “effect on total CFU per ml by 8 h in broth culture” value is listed as “without affecting the total number of colony forming unit (CFU) per ml by 8 h” and the “effect on Listeria growth” value is recorded as “slight decrease in growth rate”.

Turning to `CCC[C@H](NC(=O)/C(C#N)=C/c1cccc(Cl)n1)c1ccccc1` [Compound 1], in the data set with L. monocytogenes [1], the concentration for a half-maximal effect (EC50) turned out to be 1100 nM, the “decrease in Listeria intracellular viability” value was 54.7%, the “effect … (in words)” value is “Decrease L.m. intracellular growth” and the “Decrease intracellular listeria viability (%)” value came out at 54.7%. In the data set with L. monocytogenes [2], the “effect on total CFU per ml by 8 h in broth culture” value is on record as “without affecting the total number of colony forming unit (CFU) per ml by 8 h” and the “effect on Listeria growth” value is reported as “slight decrease in growth rate”.

For `CCC[C@H](NC(=O)/C=C/c1cccc(Br)n1)c1ccccc1` [Compound 8], the “effect … (in words)” value with L. monocytogenes [1] is recorded as “No effect on L.m. intracellular growth”; with L. monocytogenes [1] (listed as compound 8), “no significant effect on Listeria intracellular growth; also recorded: no activity”. Besides, the “cellular toxicity (WST-1 viability)” value in the data set with RAW264.7 cells (5 µM, 1 h pre-treatment) is recorded as “no significant toxicity”.
